In PubChem BioAssay (NCI):
“And” between values parts separate entries of the source, which are not always exact repeats. Equal values may be shown once.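 Protocol summary: plate cells (96-well), add compound at 5 concentrations, incubate 48 h, interpolate endpoints linearly. GI50 = concentration required for 50% inhibition of growth. TGI marks complete inhibition of growth.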

Columns and labels:
Assay in all cases: NCI anticancer screen, dose series, 48 h
SK-MEL-2 melanoma = test system: SK-MEL-2 melanoma
EKVX NSCLC = test system: EKVX NSCLC
HCT-116 colon = test system: HCT-116 colon
A549 NSCLC = test system: A549 NSCLC
MALME-3M melanoma = test system: MALME-3M melanoma
786-0 renal = test system: 786-0 renal
MDA-MB-231 breast = test system: MDA-MB-231 breast
SF-268 CNS = test system: SF-268 CNS
SR leukemia = test system: SR leukemia
UO-31 renal = test system: UO-31 renal

Compound `O=C1CC(N2C(=O)/C(=C/C(Cl)=C\c3ccc([N+](=O)[O-])cc3)SC2=S)C(=O)N1c1ccc(O)cc1` (stereo not given) has a GI50 (SK-MEL-2 melanoma) of 2.74 µM, a TGI (SK-MEL-2 melanoma) of 7.83 µM and a GI50 (EKVX NSCLC) of 3.25 µM. For the same compound, the TGI (EKVX NSCLC) was 11.7 µM, the GI50 (HCT-116 colon) was 0.751 µM and the TGI (HCT-116 colon) was 2.14 µM. The GI50 (A549 NSCLC) was 3.11 µM, the TGI (A549 NSCLC) was 11.3 µM and the GI50 (MALME-3M melanoma) was 2.31 µM. It also gave a TGI (MALME-3M melanoma) of 5.79 µM, a GI50 (786-0 renal) of 1.23 µM and a TGI (786-0 renal) of 4.81 µM. The GI50 (MDA-MB-231 breast) was 2.14 µM, the TGI (MDA-MB-231 breast) was 5.06 µM and the GI50 (SF-268 CNS) was 2.43 µM. For the same compound, the TGI (SF-268 CNS) was 6.99 µM, the GI50 (SR leukemia) was 0.394 µM and the TGI (SR leukemia) was 4.97 µM. The GI50 (UO-31 renal) was 1.35 µM and the TGI (UO-31 renal) was 2.79 µM.

`COc1ccc(-c2cn(-c3cc(OC)c(OC)c(OC)c3)c(=O)[nH]2)cc1OC` showed a GI50 (SK-MEL-2 melanoma) of over 100 µM, a TGI (SK-MEL-2 melanoma) of over 100 µM and a GI50 (EKVX NSCLC) of over 100 µM. It also gave a TGI (EKVX NSCLC) of over 100 µM, a GI50 (HCT-116 colon) of over 100 µM and a TGI (HCT-116 colon) of over 100 µM. The GI50 (A549 NSCLC) was over 100 µM, the TGI (A549 NSCLC) was over 100 µM and the GI50 (MALME-3M melanoma) was over 100 µM. For the same compound, the TGI (MALME-3M melanoma) was over 100 µM, the GI50 (786-0 renal) was over 100 µM and the TGI (786-0 renal) was over 100 µM. It also gave a GI50 (MDA-MB-231 breast) of over 100 µM, a TGI (MDA-MB-231 breast) of over 100 µM and a GI50 (SF-268 CNS) of over 100 µM. The TGI (SF-268 CNS) was over 100 µM, the GI50 (SR leukemia) was over 100 µM and the TGI (SR leukemia) was over 100 µM. The GI50 (UO-31 renal) was over 100 µM and the TGI (UO-31 renal) was over 100 µM.

`COC(=O)[C@@H](C)C[C@H](Cc1ccccc1)NC(=O)c1csc([C@@H](C[C@H](C(C)C)N(C)C(=O)[C@@H](NC(=O)[C@H]2CCCN2C)C2CC2)OC(C)=O)n1` was tested, and the GI50 (SK-MEL-2 melanoma) was 0.000505 µM, the GI50 (EKVX NSCLC) was 0.00833 µM and the GI50 (HCT-116 colon) was 0.000389 µM. For the same compound, the GI50 (A549 NSCLC) was 0.00664 µM and 0.0025 µM, the TGI (A549 NSCLC) was over 25 µM and the GI50 (MALME-3M melanoma) was 4.41 µM. The TGI (MALME-3M melanoma) was over 25 µM, the GI50 (786-0 renal) was 0.00479 µM and 0.0025 µM and the TGI (786-0 renal) was over 25 µM. The GI50 (MDA-MB-231 breast) was 0.00165 µM and < 0.0025 µM, the TGI (MDA-MB-231 breast) was under 0.0025 µM and the GI50 (SF-268 CNS) was 0.00871 µM and 0.0025 µM. The TGI (SF-268 CNS) was over 25 µM, the TGI (SR leukemia) was over 25 µM and the TGI (UO-31 renal) was over 25 µM.
